Results taken from US9469650B2, “Melampomagnolide B derivatives” (BOARD OF TRUSTEES OF THE UNIVERSITY OF ARKANSAS, priority 2013, dated 2016).
Read-outs that look alike come from different tables or passages of the source.

What was measured:
[1] = test system: HL-60(TB)
[2] = test system: CCRF-CEM; test: panel of 60 human tumor cell lines, growth inhibition (Leukemia)
[3] = test system: MOLT-4; test: as above
[4] = test system: LOX IMVI; test: panel of 60 human tumor cell lines, growth inhibition (Melanoma)
[5] = test system: SK-MEL-2; test: as above
[6] = test system: SK-MEL-5; test: as above; settings: for Percent Growth: 8K-MEL-5
[7] = test system: HCC-2998; test: panel of 60 human tumor cell lines, growth inhibition (Colon Cancer); settings: for Percent Growth: HCC-2998
[8] = test system: HCT-15; test: as above
[9] = test system: CAKI-1; test: panel of 60 human tumor cell lines, growth inhibition (Renal Cancer)
[10] = test system: RXF 393; test: as above; settings: for Percent Growth: RXF 393
[11] = test system: SN12C; test: as above
[12] = test system: MCF7; test: panel of 60 human tumor cell lines, growth inhibition (Breast Cancer); settings: for Percent Growth: MCF7
[13] = test system: MDA-MB-231/ATCC; test: as above; settings: for Percent Growth: MDA-MB-231/ATCC
[14] = test system: SK-OV-3; test: panel of 60 human tumor cell lines, growth inhibition (Ovarian Cancer)
[15] = test system: DU-145; test: panel of 60 human tumor cell lines, growth inhibition (Prostate Cancer)
[16] = test system: HOP-62; test: panel of 60 human tumor cell lines, growth inhibition (Non-Small Cell Lung Cancer)
[17] = test system: HOP-92; test: as above; settings: for Percent Growth: HOP-92
[18] = test system: NCI-H226; test: as above
[19] = test system: NCI-H460; test: as above

## C=C1C(=O)O[C@H]2[C@H]1CC/C(COC(=O)CCC(=O)NCc1ccc(Cl)nc1)=C\CC[C@@]1(C)O[C@@H]21 [JVM 96]
[1]; Log10 Concentration −4.0
  Percent Growth: −48%
[1]; Log10 Concentration −5.0
  Percent Growth: −5%
[1]; Log10 Concentration −6.0
  Percent Growth: 76%
[1]; Log10 Concentration −7.0
  Percent Growth: 78%
[1]; Log10 Concentration −8.0
  Percent Growth: 91%
[2]; Homo sapiens
  GI50: 2.2 µM
[2]; Homo sapiens, read-out: LC50
  CC50: > 100 µM
[2]; Homo sapiens, read-out: TGI
  IC (TGI): 7.66 µM
[2]; Log10 Concentration −4.0
  Percent Growth: −49%
[2]; Log10 Concentration −5.0
  Percent Growth: −11%
[2]; Log10 Concentration −6.0
  Percent Growth: 82%
[2]; Log10 Concentration −7.0
  Percent Growth: 100%
[2]; Log10 Concentration −8.0
  Percent Growth: 99%
[3]; Homo sapiens, MOLT-4
  GI50: 6.22 µM
[3]; Homo sapiens, MOLT-4, read-out: LC50
  CC50: > 100 µM
[3]; Homo sapiens, MOLT-4, read-out: TGI
  IC (TGI): 38.2 µM
[3]; MOLT-4, Log10 Concentration −4.0
  Percent Growth: −25%
[3]; MOLT-4, Log10 Concentration −5.0
  Percent Growth: 34%
[3]; MOLT-4, Log10 Concentration −6.0
  Percent Growth: 110%
[3]; MOLT-4, Log10 Concentration −7.0
  Percent Growth: 105%
[3]; MOLT-4, Log10 Concentration −8.0
  Percent Growth: 97%
[4]; Homo sapiens
  GI50: 4.74 µM
[4]; Homo sapiens, read-out: LC50
  CC50: 47 µM
[4]; Homo sapiens, read-out: TGI
  IC (TGI): 16.7 µM
[4]; Log10 Concentration −4.0
  Percent Growth: −86%
[4]; Log10 Concentration −5.0
  Percent Growth: 25%
[4]; Log10 Concentration −6.0
  Percent Growth: 103%
[4]; Log10 Concentration −7.0
  Percent Growth: 98%
[4]; Log10 Concentration −8.0
  Percent Growth: 98%
[5]; Homo sapiens, SK-MEL-2
  GI50: 11.3 µM
[5]; Homo sapiens, SK-MEL-2, read-out: LC50
  CC50: 64.1 µM
[5]; Homo sapiens, SK-MEL-2, read-out: TGI
  IC (TGI): 26.9 µM
[5]; SK-MEL-2, Log10 Concentration −4.0
  Percent Growth: −76%
[5]; SK-MEL-2, Log10 Concentration −5.0
  Percent Growth: 57%
[5]; SK-MEL-2, Log10 Concentration −6.0
  Percent Growth: 97%
[5]; SK-MEL-2, Log10 Concentration −7.0
  Percent Growth: 92%
[5]; SK-MEL-2, Log10 Concentration −8.0
  Percent Growth: 90%
[6]; Log10 Concentration −4.0
  Percent Growth: −89%
[6]; Log10 Concentration −5.0
  Percent Growth: 53%
[6]; Log10 Concentration −7.0
  Percent Growth: 98%
[6]; Log10 Concentration −8.0
  Percent Growth: 97%
[6]; Homo sapiens, SK-MEL-5
  GI50: 10.5 µM
[6]; Homo sapiens, SK-MEL-5, read-out: LC50
  CC50: 53.1 µM
[6]; Homo sapiens, SK-MEL-5, read-out: TGI
  IC (TGI): 23.7 µM
[7]; Log10 Concentration −4.0
  Percent Growth: −90%
[7]; Log10 Concentration −5.0
  Percent Growth: 76%
[7]; Log10 Concentration −6.0
  Percent Growth: 108%
[7]; Log10 Concentration −7.0
  Percent Growth: 101%
[7]; Log10 Concentration −8.0
  Percent Growth: 99%
[7]; Homo sapiens, HCC 2998
  GI50: 14.4 µM
[7]; Homo sapiens, HCC 2998, read-out: LC50
  CC50: 57.3 µM
[7]; Homo sapiens, HCC 2998, read-out: TGI
  IC (TGI): 28.7 µM
[8]; HCT-15, Log10 Concentration −4.0
  Percent Growth: −88%
[8]; HCT-15, Log10 Concentration −5.0
  Percent Growth: 16%
[8]; HCT-15, Log10 Concentration −6.0
  Percent Growth: 8.9%
[8]; HCT-15, Log10 Concentration −7.0
  Percent Growth: 93%
[8]; HCT-15, Log10 Concentration −8.0
  Percent Growth: 93%
[8]; Homo sapiens, HCT-15
  GI50: 3.43 µM
[8]; Homo sapiens, HCT-15, read-out: LC50
  CC50: 43.1 µM
[8]; Homo sapiens, HCT-15, read-out: TGI
  IC (TGI): 14.2 µM
[9]; CAKI-1, Log10 Concentration −4.0
  Percent Growth: −93%
[9]; CAKI-1, Log10 Concentration −5.0
  Percent Growth: 41%
[9]; CAKI-1, Log10 Concentration −6.0
  Percent Growth: 87%
[9]; CAKI-1, Log10 Concentration −7.0
  Percent Growth: 85%
[9]; CAKI-1, Log10 Concentration −8.0
  Percent Growth: 93%
[9]; Homo sapiens, CAKI-1
  GI50: 6.37 µM
[9]; Homo sapiens, CAKI-1, read-out: LC50
  CC50: 47.9 µM
[9]; Homo sapiens, CAKI-1, read-out: TGI
  IC (TGI): 20.3 µM
[10]; Homo sapiens, RXF 393, RXF 393
  GI50: 3.57 µM
[10]; Homo sapiens, RXF 393, read-out: LC50
  CC50: 48.4 µM
[10]; Homo sapiens, RXF 393, read-out: TGI
  IC (TGI): 14.4 µM
[10]; Log10 Concentration −4.0
  Percent Growth: −80%
[10]; Log10 Concentration −5.0
  Percent Growth: 15%
[10]; Log10 Concentration −6.0
  Percent Growth: 93%
[10]; Log10 Concentration −7.0
  Percent Growth: 100%
[10]; Log10 Concentration −8.0
  Percent Growth: 93%
[11]; Homo sapiens
  GI50: 12.5 µM
[11]; Homo sapiens, read-out: LC50
  CC50: > 100 µM
[11]; Homo sapiens, read-out: TGI
  IC (TGI): 40.4 µM
[11]; Log10 Concentration −4.0
  Percent Growth: −39%
[11]; Log10 Concentration −5.0
  Percent Growth: 59%
[11]; Log10 Concentration −6.0
  Percent Growth: 95%
[11]; Log10 Concentration −7.0
  Percent Growth: 100%
[11]; Log10 Concentration −8.0
  Percent Growth: 97%
[12]; Homo sapiens, MCF7, MCF7
  GI50: 3.2 µM
[12]; Homo sapiens, MCF7, read-out: LC50
  CC50: 58.9 µM
[12]; Homo sapiens, MCF7, read-out: TGI
  IC (TGI): 13.6 µM
[12]; Log10 Concentration −4.0
  Percent Growth: −68%
[12]; Log10 Concentration −5.0
  Percent Growth: 10%
[12]; Log10 Concentration −6.0
  Percent Growth: 90%
[12]; Log10 Concentration −7.0
  Percent Growth: 89%
[12]; Log10 Concentration −8.0
  Percent Growth: 90%
[13]; Homo sapiens, MDA-MB-231
  GI50: 6.19 µM
[13]; Homo sapiens, MDA-MB-231, read-out: LC50
  CC50: 61.5 µM
[13]; Homo sapiens, MDA-MB-231, read-out: TGI
  IC (TGI): 22.2 µM
[13]; Log10 Concentration −4.0
  Percent Growth: −74%
[13]; Log10 Concentration −5.0
  Percent Growth: 39%
[13]; Log10 Concentration −6.0
  Percent Growth: 91%
[13]; Log10 Concentration −7.0
  Percent Growth: 96%
[13]; Log10 Concentration −8.0
  Percent Growth: 97%
[14]; Homo sapiens, SK-OV-3
  GI50: 28 µM
[14]; Homo sapiens, SK-OV-3, read-out: LC50
  CC50: > 100 µM
[14]; Homo sapiens, SK-OV-3, read-out: TGI
  IC (TGI): 70.5 µM
[14]; SK-OV-3, Log10 Concentration −4.0
  Percent Growth: −19%
[14]; SK-OV-3, Log10 Concentration −5.0
  Percent Growth: 106%
[14]; SK-OV-3, Log10 Concentration −6.0
  Percent Growth: 106%
[14]; SK-OV-3, Log10 Concentration −7.0
  Percent Growth: 104%
[14]; SK-OV-3, Log10 Concentration −8.0
  Percent Growth: 99%
[15]; DU-145, Log10 Concentration −4.0
  Percent Growth: −97%
[15]; DU-145, Log10 Concentration −5.0
  Percent Growth: 16%
[15]; DU-145, Log10 Concentration −6.0
  Percent Growth: 98%
[15]; DU-145, Log10 Concentration −7.0
  Percent Growth: 106%
[15]; DU-145, Log10 Concentration −8.0
  Percent Growth: 99%
[15]; Homo sapiens, DU-145
  GI50: 3.84 µM
[15]; Homo sapiens, DU-145, read-out: LC50
  CC50: 38.4 µM
[15]; Homo sapiens, DU-145, read-out: TGI
  IC (TGI): 13.9 µM
[16]; HOP-62, Log10 Concentration −4.0
  Percent Growth: −53%
[16]; HOP-62, Log10 Concentration −5.0
  Percent Growth: 95%
[16]; HOP-62, Log10 Concentration −6.0
  Percent Growth: 98%
[16]; HOP-62, Log10 Concentration −7.0
  Percent Growth: 93%
[16]; HOP-62, Log10 Concentration −8.0
  Percent Growth: 95%
[16]; Homo sapiens, HOP-62
  GI50: 20.1 µM
[16]; Homo sapiens, HOP-62, read-out: LC50
  CC50: 95.2 µM
[16]; Homo sapiens, HOP-62, read-out: TGI
  IC (TGI): 43.7 µM
[17]; Log10 Concentration −4.0
  Percent Growth: −93%
[17]; Log10 Concentration −5.0
  Percent Growth: −2%
[17]; Log10 Concentration −6.0
  Percent Growth: 90%
[17]; Log10 Concentration −7.0
  Percent Growth: 93%
[17]; Log10 Concentration −8.0
  Percent Growth: 93%
[17]; Homo sapiens, HOP-92, HOP-92
  GI50: 2.72 µM
[17]; Homo sapiens, HOP-92, read-out: LC50
  CC50: 33.7 µM
[17]; Homo sapiens, HOP-92, read-out: TGI
  IC (TGI): 9.47 µM
[18]; Homo sapiens, NCI-H226
  GI50: 12.7 µM
[18]; Homo sapiens, NCI-H226, read-out: TGI
  IC (TGI): 32 µM
[18]; NCI-H226, Log10 Concentration −4.0
  Percent Growth: −61%
[18]; NCI-H226, Log10 Concentration −5.0
  Percent Growth: 63%
[18]; NCI-H226, Log10 Concentration −6.0
  Percent Growth: 94%
[18]; NCI-H226, Log10 Concentration −7.0
  Percent Growth: 97%
[18]; NCI-H226, Log10 Concentration −8.0
  Percent Growth: 96%
[19]; Homo sapiens, NCI-H460
  GI50: 21.3 µM
[19]; Homo sapiens, NCI-H460, read-out: LC50
  CC50: > 100 µM
[19]; Homo sapiens, NCI-H460, read-out: TGI
  IC (TGI): 53.9 µM
[19]; NCI-H460, Log10 Concentration −4.0
  Percent Growth: −33%
[19]; NCI-H460, Log10 Concentration −5.0
  Percent Growth: 91%
[19]; NCI-H460, Log10 Concentration −6.0
  Percent Growth: 101%
[19]; NCI-H460, Log10 Concentration −7.0
  Percent Growth: 102%
[19]; NCI-H460, Log10 Concentration −8.0
  Percent Growth: 102%
